15 compounds from patent publication US5449667A, “Amidothiophosphate derivative and insecticide, nematocide and acaricide containing the same as active ingredient” (priority 1993, dated 1995) can be followed below.

Common to all, as to type: in vivo
Assay [1] deals with larvae of Spodoptera litura. The experiment in a line: Insecticidal activity against larvae of Spodoptera litura. The note with it: 144 h, 4-instar larvae, artificial bait, after six days. The method, then: Biological Test 1 Insecticidal Activity Against Larvae of Spodoptera litura
Emulsifiable concentrates were prepared for each of the present compounds according to the formulation example 1. Thirteen grams of artificial bait for Spodoptera litura were placed in a polyethylene cup (diameter: 11 cm) and impregnated with 2 ml of the emulsifiable concentrate diluted with water (500 ppm). Ten 4-instar larvae of Spodoptera litura were put in the polyethylene cup. After six days, the mortality of the larvae was examined.

Assay [2] has as its system larvae of Nilaparvata lugens. The assay is described as follows: Insecticidal activity against larvae of Nilaparvata lugens. The note with it: 500 ppm aqueous solution, rice stalk dip, approximately 30 larvae, after six days. The method, then: Biological Test 2 Insecticidal Activity Against Larvae of Nilaparvata lugens
A stalk of a rice plant was dipped for one minute in a 500 ppm aqueous solution obtained by diluting each emulsifiable concentrate prepared from each of the present compounds according to the formulation example 1 and then air-dried. The rice plant stalk was placed in a polyethylene cup (diameter: 5.5 cm) where filter paper (diameter: 5.5 cm) impregnated with 1 ml of water was put. Approximately 30 larvae of Nilaparvata lugens were put in the polyethylene cup. After six days, the activity was evaluated according to the following criteria:
B: the number of the living larvae is not greater than 5
C: the number of the living larvae is 6 or more

The next assay concerns Blattella germanica. The assay is described as follows: Insecticidal activity against Blattella germanica. As to conditions: 24 h, 0.7 ml of 500 ppm on filter paper, ten male cockroaches, after one day. The method, then: Biological Test 3 Insecticidal Avtivity Against Blattella germanica
Filter paper of 5.5 cm in diameter was laid in the bottom of a polyethylene cup (diameter: 5.5 cm). After 0.7 ml of a 500 ppm aqueous solution obtained by diluting each emulsifiable concentrate prepared from each of the present compounds according to the formulation example 1 was dropped on the filter paper and approximately 30 mg of sucrose was uniformly scattered and put on the filter paper as bait, ten male cockroaches (Blattella germanica) were left in the cup with a cover. After one day, the mortality was examined for the cockroaches.

In a further assay the test system is Musca domestica. The experiment in a line: Insecticidal activity against Musca domestica. As to conditions: 24 h, 0.7 ml of 500 ppm on filter paper, ten female house flies, after one day. The method, then: Biological Test 4 Insecticidal Activity Against Musca domestica
Filter paper of 5.5 cm in diameter was laid in the bottom of a polyethylene cup (diameter: 5.5 cm). After 0.7 ml of a 500 ppm aqueous solution obtained by diluting each emulsifiable concentrate prepared from each of the present compounds according to the formulation example 1 was dropped on the filter paper and approximately 30 mg of sucrose was uniformly scattered, and put on the filter paper as bait, ten female house flies (Musca domestica) were left in the cup with a cover. After one day, the mortality was examined for the flies.

For assay [3], the system named is larvae of Diabrotica undecimpunctata. The experiment in a line: Insecticidal activity against larvae of Diabrotica undecimpunctata. As to conditions: 1 ml of 50 ppm on filter paper, approximately thirty eggs, after eight days. The method, then:
Biological Text 5 Insecticidal Activity Against Larvae of Diabrotica undecimpunctata
Filter paper of 5.5 cm in diameter was laid in the bottom of a polyethylene cup (diameter: 5.5 cm). After 1 ml of a 50 ppm aqueous solution obtained by diluting each of the emulsifiable concentrate prepared from each of the present compounds according to the formulation example 1 was dropped on the filter paper and one sprouting corn crop was placed as bait on the paper, approximately thirty eggs of Diabrotica undecimpunctata were left on the filter paper. After eight days, the rate of hatched larvae was examined. The activity were evaluated according to the following criteria:
B: Mortality not less than 90% but less than 100%
C: Mortality less than 90%

For another assay, the system named is root-knot nematodes. The assay is described as follows: Activity against root-knot nematodes. The arrangement: key: -: substantially no root knots; +: several to ten odds root knots; ++: larger number of root knots (heavier damage than +). As to conditions: 25 ppm active ingredient in soil, tomato root, after four weeks. The method, then:
Biological Test 6 Activity Against Root-knot Nematodes
One ml of a 500 ppm aqueous solution of each of the present compounds obtained by diluting each emulsifiable concentrate prepared from each of the present compounds according to the formulation example 1 was mixed with 19 g of soil contaminated with root-knot nematodes (concentration of active ingredient in soil: 25 ppm). After the soil was kept at 27° C. for 24 hours, the root of a tomato plant (approximately two weeks after sprouting) in a cup was covered with the soil and some water was given to the plant. After four weeks, damage to the root of the tomato plant was evaluated according to the following criteria:
-: substantially no root knots
+: several to ten odds root knots
++: larger number of root knots (heavier damage than +)

The subject of assay [4] is larvae of Culex pipiens pallens. The assay is described as follows: Insecticidal activity against larvae of Culex pipiens pallens. As to conditions: 3.5 ppm active ingredient in water, twenty last-instar larvae, after one day. The method, then: Biological Test 7 Insecticidal Activity Against Larvae of Culex pipiens pallens
Each of emulsifiable concentrates prepared from each of the present compounds according to the formulation example 1 was diluted with water, and 0.7 ml of the diluted solution was added to 100 ml of ion-exchanged water (concentration of active ingredient: 3.5 ppm). Twenty last-instar larvae of Culex pipiens pallens were left in the water. After one day, the activity was evaluated according to the following criteria:
A: Mortality not less than 90%
B: Mortality not less than 10% but less than 90%
C: Mortality less than 10%

The subject of another assay is Tetranychus cinnabarinus. The assay is described as follows: Activity against Tetranychus cinnabarinus. The arrangement: key: -: substantially no damage; +: little damage; ++: heavy damage. The note with it: 500 ppm, 15 ml spray plus 2 ml soil injection, kidney bean, after eight days. The method, then:
Biological Test 8 Activity Against Tetranychus cinnabarinus
Ten male mites (Tetranychus cinnabarinus) per leaf were placed on a pot-planted kidney bean (Phasseolus vulgaris: seven days after sowing) and kept in a thermostatic chamber. After six days, 15 ml of a 500 ppm aqueous solution obtained by diluting each emulsifiable concentrate of each of the present compounds according to the formulation example 1 was sprayed in a pot simultaneously with injection of 2 ml of the solution into soil. After eight days, damage to the plant by Tetranychus cinnabarinus was evaluated according to the following criteria:
-: substantially no damage

On to `CCCSP(=O)(OC)N(CC#N)C(=O)OC` (centres unmarked) [Compound 1], for which the mortality at 500 ppm (in assay [1]; in the assay with Blattella germanica; in the assay on Musca domestica) was 100% in each case. Further, the Activity entry is on record as “A (no living larvae)” in assay [2]; “A (Mortality 100%)” in assay [3]; “-” with root-knot nematodes; “A (Mortality not less than 90%)” in assay [4]; “-” in the assay with Tetranychus cinnabarinus.

Consider `CCCSP(=O)(OC)N(CC#N)C(=O)OCC` (centres unmarked) [Compound 2], for which the mortality at 500 ppm (in assay [1]; with Blattella germanica; with Musca domestica) was 100% each time. Also, the Activity entry is “A (no living larvae)” in assay [2]; “A (Mortality 100%)” in assay [3]; “-” in the assay with root-knot nematodes; “A (Mortality not less than 90%)” in assay [4]; “-” in the assay on Tetranychus cinnabarinus.

Take `CCCSP(=O)(OC)N(CC#N)C(=O)OC(C)C` (centres unmarked) [Compound 3]: the mortality at 500 ppm (in assay [1]; in the assay with Blattella germanica; in the assay with Musca domestica) was 100% throughout. Moreover, the Activity entry in assay [2] is listed as “A (no living larvae)”; in assay [3], “A (Mortality 100%)”; in the assay with root-knot nematodes it was “-”; in assay [4] it was “A (Mortality not less than 90%)”; with Tetranychus cinnabarinus, “-”.

As for `CCC(C)SP(=O)(OC)N(CC#N)C(=O)OC` (centres unmarked) [Compound 4], the mortality at 500 ppm (in assay [1]; with Blattella germanica; in the assay with Musca domestica) was 100% each time. In addition, the Activity entry is reported as “A (no living larvae)” in assay [2]; “A (Mortality 100%)” in assay [3]; “-” in the assay with root-knot nematodes; “A (Mortality not less than 90%)” in assay [4]; “-” with Tetranychus cinnabarinus.

With `CCCSP(=O)(OC)N(CCC#N)C(=O)SC` (centres unmarked) [Compound 5], the mortality at 500 ppm (in assay [1]; in the assay with Musca domestica) was 100% each time. Further, the values for the Activity result (in assay [3]; in the assay with root-knot nematodes; with Tetranychus cinnabarinus) were “A (Mortality 100%)”, “-” and “-”, respectively.

For the compound `CCOC(=O)N(CC#N)P(=O)(OC)SC(C)CC` (centres unmarked) [Compound 6], the mortality at 500 ppm (in assay [1]; with Blattella germanica; with Musca domestica) was 100% each time. In addition, the Activity entry in assay [2] was “A (no living larvae)”; in assay [3], “A (Mortality 100%)”; in the assay on root-knot nematodes, “-”; in assay [4], “A (Mortality not less than 90%)”; with Tetranychus cinnabarinus, “-”.

For `CCCSP(=O)(OCC)N(CC#N)C(=O)OC` (centres unmarked) [Compound 7], the mortality at 500 ppm (in assay [1]; with Blattella germanica; with Musca domestica) was 100% in each case. For the same compound, the Activity result in assay [2] is reported as “A (no living larvae)”; in assay [3], “A (Mortality 100%)”; in the assay with root-knot nematodes, “-”; in assay [4], “A (Mortality not less than 90%)”; in the assay on Tetranychus cinnabarinus, “-”.

Take `CCCSP(=O)(OCC)N(CC#N)C(=O)OCC` (centres unmarked) [Compound 8]: the mortality at 500 ppm (in assay [1]; in the assay with Blattella germanica; with Musca domestica) was 100% in each case. Further, the Activity entry is given as “A (no living larvae)” in assay [2]; “A (Mortality 100%)” in assay [3]; “-” in the assay on root-knot nematodes; “A (Mortality not less than 90%)” in assay [4]; “-” with Tetranychus cinnabarinus.

As for `CCOC(=O)N(CC#N)P(=O)(OCC)SC(C)CC` (centres unmarked) [Compound 10], the mortality at 500 ppm (in assay [1]; in the assay on Blattella germanica; in the assay with Musca domestica) was 100% each time. Further, the Activity entry in assay [3] is given as “A (Mortality 100%)”; with root-knot nematodes, “-”; in assay [4], “A (Mortality not less than 90%)”; with Tetranychus cinnabarinus it was “-”.

Turning to `CCOP(=O)(SC(C)CC)N(CC#N)C(=O)SC` (centres unmarked) [Compound 11], the mortality at 500 ppm (in assay [1]; with Blattella germanica; in the assay on Musca domestica) was 100% in each case. The Activity result in assay [3] is on record as “A (Mortality 100%)”; in the assay with root-knot nematodes it was “-”; in assay [4], “A (Mortality not less than 90%)”; in the assay with Tetranychus cinnabarinus, “-”.

Turning to `CCCSC(=O)N(CC#N)P(=O)(OCC)SC(C)CC` (centres unmarked) [Compound 12], the mortality at 500 ppm (in assay [1]; in the assay with Blattella germanica; in the assay with Musca domestica) was 100% throughout. In addition, the Activity entry is “A (Mortality 100%)” in assay [3], “-” in the assay on root-knot nematodes, “A (Mortality not less than 90%)” in assay [4] and “-” in the assay on Tetranychus cinnabarinus.

For `CCOP(=O)(SC(C)CC)N(CC#N)C(=O)Oc1ccccc1` (centres unmarked) [Compound 14, O-ethyl S-sec-butyl N-cyanomethyl N-phenoxycarbonyl phosphoroamidothiolate], the mortality at 500 ppm (in assay [1]; in the assay with Blattella germanica; in the assay on Musca domestica) was 100% each time. For the same compound, the Activity entry in assay [2] is “A (no living larvae)”; in assay [3], “A (Mortality 100%)”; in the assay with root-knot nematodes, “-”; in assay [4] it was “A (Mortality not less than 90%)”; in the assay with Tetranychus cinnabarinus, “-”.

In the case of `CCC(C)SP(=O)(OC)N(CC#N)C(=O)Oc1ccccc1` (centres unmarked) [Compound 15], the Activity entry in the assay on Tetranychus cinnabarinus is reported as “-”.

Turning to `CCCSC(=O)N(CCC#N)P(=O)(OCC)SC(C)CC` (centres unmarked) [Compound 19], the mortality at 500 ppm in the assay with Blattella germanica and in the assay on Musca domestica was 100% each time. The Activity entry is recorded as “A (Mortality 100%)” in assay [3], “-” in the assay with root-knot nematodes, “A (Mortality not less than 90%)” in assay [4] and “-” in the assay on Tetranychus cinnabarinus.

As for `CCOC(=O)N(CCC#N)P(=O)(OCC)SC(C)CC` (centres unmarked) [Compound 20], the mortality at 500 ppm (in assay [1]; in the assay with Blattella germanica; in the assay on Musca domestica) was 100% in each case. Moreover, the Activity entry in assay [3] is listed as “A (Mortality 100%)”; in the assay with root-knot nematodes it was “-”; in assay [4], “A (Mortality not less than 90%)”; with Tetranychus cinnabarinus, “-”.
